Experimental data reported in article PMC9250534, “Synthesis and direct assay of large macrocycle diversities by combinatorial late-stage modification at picomole scale” (Nature Communications, 2022).
Numbered stars: 1 amine (or outer) side, 2 acyl side, 3 side chain; on linkers, the order of the positions; unused ones are H or OH. Bridge positions count the residues as written; N and C are the ends. Square brackets hold non-standard residues; d marks the D form. Peptide text beside a SMILES is read from it. * marks the point of attachment. 1,2,3Thiadiazole5CO(4-Me) = Cc1nnsc1C(=O)*; Cysteamide = C(CS[*:3])N[*:1]; 4Amb = NCc1ccc(C(=O)O)cc1; Isovaleryl = CC(C)CC(=O)*; Orn = NCCC[C@H](N)C(=O)O; 2Furoyl = O=C(c1ccco1)*; Bz = O=C(c1ccccc1)*; βAla = NCCC(=O)O; Mpa = O=C(O)CCS

target: T1, thrombin (Homo sapiens, UniProt P00734); experiment: Thrombin inhibition screen of crude macrocycle reactions (residual thrombin activity, fluorogenic substrate Z-Gly-Gly-Arg-AMC); type: biochemical; conditions: 10 µM macrocycle concentration; crude reactions, Library 1a-l; scaffold AA1-AA2-AA3 combined with 1-16 or '-'
T1 construct: consists of two polypeptide chains of 36 (light chain) and 259 amino acid
Method in brief: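 Residual activity was measured as the AMC release rate after adding 50 μM Z-Gly-Gly-Arg-AMC. This followed a 10-min room-temperature preincubation of 2 nM thrombin with 10 μM single macrocycles in pH 7.4 Tris buffer (0.6% DMSO). Percent inhibition was taken against the mean slope of DMSO controls.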

Structure (SMILES)	percent residual thrombin activity
CC[C@H](C)[C@@H]1NC(=O)[C@H](CCCNC(=O)c2snnc2C)NC(=O)CCSSCCNC(=O)[C@@H]2CCCN2C1=O [D2-I-B1/15] ([Mpa][Orn](1,2,3Thiadiazole5CO(4-Me))IP-Cysteamide; disulfide 1-C)	108.604%
CC[C@H](C)[C@@H]1NC(=O)[C@H](CCCNC(=O)c2ccccc2)NC(=O)CCSSCCNC(=O)CCNC1=O [D2-I-B2/1] ([Mpa][Orn](Bz)I[βAla]-Cysteamide; disulfide 1-C)	109.798%
CC[C@H](C)[C@@H]1NC(=O)[C@H](CCCNC(=O)c2cnccn2)NC(=O)CCSSCCNC(=O)CCNC1=O [D2-I-B2/2]	113.295%
CC[C@H](C)[C@@H]1NC(=O)[C@H](CCCNC(=O)CC(C)C)NC(=O)CCSSCCNC(=O)CCNC1=O [D2-I-B2/8] ([Mpa][Orn](Isovaleryl)I[βAla]-Cysteamide; disulfide 1-C)	110.049%
CC[C@H](C)[C@@H]1NC(=O)[C@H](CCCNC(=O)COc2ccccc2)NC(=O)CCSSCCNC(=O)CCNC1=O [D2-I-B2/13]	114.645%
CC[C@H](C)[C@@H]1NC(=O)[C@H](CCCNC(=O)c2ccc(Cl)s2)NC(=O)CCSSCCNC(=O)CCNC1=O [D2-I-B2/14]	94.0704%
O=C1CCNC(=O)[C@H](CO)NC(=O)[C@H](CCCNC(=O)c2cnccn2)NC(=O)CCSSCCN1 [D2-S-B2/2]	115.288%
COc1ccc(C(=O)NCCC[C@@H]2NC(=O)CCSSCCNC(=O)CCNC(=O)[C@H](CO)NC2=O)cn1 [D2-S-B2/10]	107.459%
O=C1CCNC(=O)[C@H](CO)NC(=O)[C@H](CCCNC(=O)Cc2c[nH]c3ccccc23)NC(=O)CCSSCCN1 [D2-S-B2/12]	110.146%
O=C1CCNC(=O)[C@H](CO)NC(=O)[C@H](CCCNC(=O)c2ccc(Cl)s2)NC(=O)CCSSCCN1 [D2-S-B2/14]	105.361%
O=C1CCSSCCNC(=O)c2ccc(cc2)CNC(=O)[C@H](Cc2c[nH]c3ccccc23)NC(=O)[C@H](CCCNC(=O)c2ccccc2)N1 [D2-W-B3/1] ([Mpa][Orn](Bz)W[4Amb]-Cysteamide; disulfide 1-C)	105.41%
O=C1CCSSCCNC(=O)c2ccc(cc2)CNC(=O)[C@H](Cc2c[nH]c3ccccc23)NC(=O)[C@H](CCCNC(=O)c2c[nH]c(=O)cn2)N1 [D2-W-B3/9]	111.429%
O=C1CCSSCCNC(=O)c2ccc(cc2)CNC(=O)[C@H](Cc2c[nH]c3ccccc23)NC(=O)[C@H](CCCNC(=O)c2c[nH]c(=O)[nH]c2=O)N1 [D2-W-B3/11]	121.031%
O=C(Cc1c[nH]c2ccccc12)NCCC[C@@H]1NC(=O)CCSSCCNC(=O)c2ccc(cc2)CNC(=O)[C@H](Cc2c[nH]c3ccccc23)NC1=O [D2-W-B3/12]	112.189%
O=C(COc1ccccc1)NCCC[C@@H]1NC(=O)CCSSCCNC(=O)c2ccc(cc2)CNC(=O)[C@H](Cc2c[nH]c3ccccc23)NC1=O [D2-W-B3/13]	117.613%
O=C1CCSSCCNC(=O)c2ccc(cc2)CNC(=O)[C@H](Cc2c[nH]c3ccccc23)NC(=O)[C@H](CCCNC(=O)c2ccc(Cl)s2)N1 [D2-W-B3/14]	109.796%
Cc1nnsc1C(=O)NCCC[C@@H]1NC(=O)CCSSCCNC(=O)c2ccc(cc2)CNC(=O)[C@H](Cc2c[nH]c3ccccc23)NC1=O [D2-W-B3/15]	116.257%
NCCC[C@@H]1NC(=O)CCSSCCNC(=O)c2ccc(cc2)CNC(=O)[C@H](Cc2c[nH]c3ccccc23)NC1=O [D2-W-B3/-] ([Mpa][Orn]W[4Amb]-Cysteamide; disulfide 1-C)	110.008%
O=C1CCSSCCNC(=O)[C@@H]2CCCN2C(=O)[C@H](Cc2ccc(O)cc2)NC(=O)[C@H](CCCNC(=O)c2ccco2)N1 [D2-Y-B1/16] ([Mpa][Orn](2Furoyl)YP-Cysteamide; disulfide 1-C)	105.138%
C[C@H]1NC(=O)[C@H](CCCNC(=O)c2ccccc2)NC(=O)CCSSCCNC(=O)CCNC1=O [D2-a-B2/1] ([Mpa][Orn](Bz)[dA][βAla]-Cysteamide; disulfide 1-C)	113.72%
COc1ccc(C(=O)NCCC[C@@H]2NC(=O)CCSSCCNC(=O)CCNC(=O)[C@@H](C)NC2=O)cn1 [D2-a-B2/10]	113.133%
C[C@H]1NC(=O)[C@H](CCCNC(=O)Cc2c[nH]c3ccccc23)NC(=O)CCSSCCNC(=O)CCNC1=O [D2-a-B2/12]	109.862%
C[C@H]1NC(=O)[C@H](CCCNC(=O)c2ccc(Cl)s2)NC(=O)CCSSCCNC(=O)CCNC1=O [D2-a-B2/14]	108.542%
CC(C)CC(=O)NCCCC[C@@H]1NC(=O)[C@H](Cc2ccccc2)NC(=O)CCSSCCNC(=O)[C@H]2CCCN(C2)C1=O [F-D1-B4/8]	108.059%

Structure (SMILES)	percent residual thrombin activity
O=C(COc1ccccc1)NCCCC[C@@H]1NC(=O)[C@H](Cc2ccccc2)NC(=O)CCSSCCNC(=O)[C@H]2CCCN(C2)C1=O [F-D1-B4/13]	109.797%
CC(C)CC(=O)NCCC[C@@H]1NC(=O)CCNC(=O)[C@H](Cc2cnc[nH]2)NC(=O)CCSSCCNC1=O [H-B2-D2/8]	108.958%
O=C1CCNC(=O)[C@H](Cc2c[nH]cn2)NC(=O)CCSSCCNC(=O)[C@H](CCCNC(=O)c2c[nH]c(=O)cn2)N1 [H-B2-D2/9]	106.277%
O=C1CCNC(=O)[C@H](Cc2c[nH]cn2)NC(=O)CCSSCCNC(=O)[C@H](CCCNC(=O)c2c[nH]c(=O)[nH]c2=O)N1 [H-B2-D2/11]	112.021%
O=C1CCNC(=O)[C@H](Cc2c[nH]cn2)NC(=O)CCSSCCNC(=O)[C@H](CCCNC(=O)c2ccc(Cl)s2)N1 [H-B2-D2/14]	94.6113%
O=C1CCNC(=O)[C@H](Cc2c[nH]cn2)NC(=O)CCSSCCNC(=O)[C@H](CCCNC(=O)c2ccco2)N1 [H-B2-D2/16]	110.75%
COc1ccc(C(=O)NCCCC[C@@H]2NC(=O)c3cccc(c3)CNC(=O)[C@H](Cc3cnc[nH]3)NC(=O)CCSSCCNC2=O)cn1 [H-B5-D1/10]	98.3606%
NCCCC[C@@H]1NC(=O)c2cccc(c2)CNC(=O)[C@H](Cc2cnc[nH]2)NC(=O)CCSSCCNC1=O [H-B5-D1/-]	101.253%
CC[C@H](C)[C@@H]1NC(=O)CCSSCCNC(=O)[C@H](CCCCNC(=O)c2cc(C)on2)NC(=O)c2cccc(c2)CNC1=O [I-B5-D1/3]	104.965%
CC[C@H](C)[C@@H]1NC(=O)CCSSCCNC(=O)[C@H](CCCCNC(=O)c2c[nH]c(=O)[nH]c2=O)NC(=O)c2cccc(c2)CNC1=O [I-B5-D1/11]	106.327%
CC[C@H](C)[C@@H]1NC(=O)CCSSCCNC(=O)[C@H](CCCCN)NC(=O)c2cccc(c2)CNC1=O [I-B5-D1/-]	103.325%
CC[C@H](C)[C@@H]1NC(=O)CCSSCCNC(=O)[C@H]2CCCN(C2)C(=O)[C@H](CCCCNC(=O)c2cnccn2)NC1=O [I-D1-B4/2]	114.834%
CC[C@H](C)[C@@H]1NC(=O)CCSSCCNC(=O)[C@H]2CCCN(C2)C(=O)[C@H](CCCCNC(=O)c2c[nH]c(=O)[nH]c2=O)NC1=O [I-D1-B4/11]	113.791%
CC[C@H](C)[C@@H]1NC(=O)CCSSCCNC(=O)[C@H]2CCCN(C2)C(=O)[C@H](CCCCN)NC1=O [I-D1-B4/-]	114.483%
CC(C)CC(=O)NCCC[C@@H]1NC(=O)[C@H]2CCCN(C2)C(=O)[C@H](CC(C)C)NC(=O)CCSSCCNC1=O [L-B4-D2/8]	106.945%
COc1ccc(C(=O)NCCC[C@@H]2NC(=O)[C@H]3CCCN(C3)C(=O)[C@H](CC(C)C)NC(=O)CCSSCCNC2=O)cn1 [L-B4-D2/10]	107.664%
CC(C)C[C@@H]1NC(=O)CCSSCCNC(=O)[C@H](CCCNC(=O)Cc2c[nH]c3ccccc23)NC(=O)[C@H]2CCCN(C2)C1=O [L-B4-D2/12]	105.489%
CC(C)C[C@@H]1NC(=O)CCSSCCNC(=O)[C@H](CCCNC(=O)COc2ccccc2)NC(=O)[C@H]2CCCN(C2)C1=O [L-B4-D2/13]	110.982%
CC(C)C[C@@H]1NC(=O)CCSSCCNC(=O)[C@H](CCCNC(=O)c2ccc(Cl)s2)NC(=O)[C@H]2CCCN(C2)C1=O [L-B4-D2/14]	97.6394%
CC(C)C[C@@H]1NC(=O)CCSSCCNC(=O)[C@H](CCCN)NC(=O)[C@H]2CCCN(C2)C1=O [L-B4-D2/-]	109.552%
CC(C)C[C@@H]1NC(=O)CCSSCCNC(=O)[C@H](CCCCNC(=O)c2cnccn2)NC(=O)C2(CC2)CNC1=O [L-B6-D1/2]	107.636%
CC(C)C[C@@H]1NC(=O)CCSSCCNC(=O)[C@H](CCCCNC(=O)c2c[nH]c(=O)cn2)NC(=O)C2(CC2)CNC1=O [L-B6-D1/9]	98.21%
CC(C)C[C@@H]1NC(=O)CCSSCCNC(=O)[C@H](CCCCNC(=O)c2ccc(Cl)s2)NC(=O)C2(CC2)CNC1=O [L-B6-D1/14]	94.7651%
CC(C)C[C@@H]1NC(=O)CCSSCCNC(=O)[C@H](CCCCN)NC(=O)C2(CC2)CNC1=O [L-B6-D1/-]	103.319%
